Data from US4081531A, “Antibiotic mimosamycin” (priority 1975, dated 1978).
In brackets after ≈: the same amount, converted by molar mass.

Experiments:
[1] = test system: Mycobacterium tuberculosis H37 RV; experiment: Antimicrobial activity (MIC) against tubercle bacilli; type: cell-based; details: H37RV, 672 h, Sauton's liquid medium, 37° C, 4 weeks
[2] = test system: Mycobacterium bovis No. 10; experiment: microbe, parasite or virus in culture; type: cell-based; details: Mycobacterium tuberculosis variant bovis, NO.10, 672 h
[3] = test system: Mycobacterium smegmatis ATCC607; experiment: Antimicrobial activity (MIC) of mimosamycin; type: cell-based; details: Mycolicibacterium smegmatis, Nutrient agar, 37° C, 48 hours
Experimental: (§1) Remarks: Nutrient agar, 37° C, 48 hours for m. smegmatis. Sauton's liquid medium, 37° C, 4 weeks for other 3 strains. The strains SMR and Matsudo resistant to streptomycin at 1000 μg/ml or higher. Mice (18 - 20 g.) tolerated intravenous injection of 50 mg./kg. of mimosamycin.

gram-positive bacteria = experiment: Antibacterial activity against gram-positive bacteria; type: cell-based
gram-negative bacteria = experiment: Antibacterial activity against gram-negative bacteria; type: cell-based
fungi = experiment: Activity against fungi; type: cell-based; details: at 50 μg/ml
acid-fast bacteria = experiment: Activity against acid-fast bacteria; type: cell-based
[4] = test system: highly streptomycin-resistant strains of human tubercle bacilli; type: cell-based; details: as is against normal strains of tubercle bacilli
[5] = Tolerability in mice, intravenous injection; type: in vivo
Experimental: as §1
(A) and 250 mg./kg.(B and C), respectively.

Solubility = type: physicochemical
tubercle bacilli = experiment: Effect against tubercle bacilli; type: cell-based
[6] = test system: Staphylococcus aureus 209 P; experiment: Antimicrobial spectrum (MIC); type: cell-based; details: 1% glucose nutrient agar, 37° C, 24 or 48 hours
[7] = test system: Staphylococcus aureus Smith; experiment: Antimicrobial spectrum (MIC); type: cell-based; details: 1% glucose nutrient agar, 37° C, 24 or 48 hours
Staphylococcus albus = experiment: Antimicrobial spectrum (MIC); type: cell-based; details: 1% glucose nutrient agar, 37° C, 24 or 48 hours
Staphylococcus citreus = experiment: Antimicrobial spectrum (MIC); type: cell-based; details: 1% glucose nutrient agar, 37° C, 24 or 48 hours
[8] = test system: Streptococcus hemolyticus Coock; experiment: Antimicrobial spectrum (MIC); type: cell-based; details: blood agar, 37° C, 24 or 48 hours
[9] = test system: Streptococcus hemolyticus 090R; experiment: Antimicrobial spectrum (MIC); type: cell-based; details: blood agar, 37° C, 24 or 48 hours
Streptococcus salivarius = experiment: Antimicrobial spectrum (MIC); type: cell-based; details: 1% glucose nutrient agar, 37° C, 24 or 48 hours
Streptococcus faecalis = experiment: Antimicrobial spectrum (MIC); type: cell-based; details: 1% glucose nutrient agar, 37° C, 24 or 48 hours
[10] = test system: Bacillus subtilis PCI 219; experiment: Antimicrobial spectrum (MIC); type: cell-based; details: 1% glucose nutrient agar, 37° C, 24 or 48 hours
Bacillus cereus = experiment: Antimicrobial spectrum (MIC); type: cell-based; details: 1% glucose nutrient agar, 37° C, 24 or 48 hours
[11] = test system: Corynebacterium diphtheriae; experiment: Antimicrobial spectrum (MIC); type: cell-based; details: 1% glucose nutrient agar, 37° C, 24 or 48 hours
Corynebacterium xerosis = experiment: Antimicrobial spectrum (MIC); type: cell-based; details: 1% glucose nutrient agar, 37° C, 24 or 48 hours
Lactobacillus arabinosus = experiment: Antimicrobial spectrum (MIC); type: cell-based; details: 1% glucose nutrient agar, 37° C, 24 or 48 hours
Nocardia asteoides = experiment: Antimicrobial spectrum (MIC); type: cell-based; details: 37° C, 24 or 48 hours
[12] = test system: Mycobacterium smegmatis ATCC 607; experiment: Antimicrobial spectrum (MIC); type: cell-based; details: 3% glycerin nutrient agar, 37° C, 24 or 48 hours
Mycobacterium phlei = experiment: Antimicrobial spectrum (MIC); type: cell-based; details: 3% glycerin nutrient agar, 37° C, 24 or 48 hours
Mycobacterium avium = experiment: Antimicrobial spectrum (MIC); type: cell-based; details: 3% glycerin nutrient agar, 37° C, 24 or 48 hours
Escherichia coli = experiment: Antimicrobial spectrum (MIC); type: cell-based; details: 1% glucose nutrient agar, 37° C, 24 or 48 hours
Shigella dysenteriae = experiment: Antimicrobial spectrum (MIC); type: cell-based; details: 1% glucose nutrient agar, 37° C, 24 or 48 hours
Salmonella typhimurium = experiment: Antimicrobial spectrum (MIC); type: cell-based; details: 1% glucose nutrient agar, 37° C, 24 or 48 hours
Klebsiella pneumonaie = experiment: Antimicrobial spectrum (MIC); type: cell-based; details: 1% glucose nutrient agar, 37° C, 24 or 48 hours
Serratia marcescens = experiment: Antimicrobial spectrum (MIC); type: cell-based; details: 1% glucose nutrient agar, 37° C, 24 or 48 hours
Pseudomonas aeruginosa = experiment: Antimicrobial spectrum (MIC); type: cell-based; details: 1% glucose nutrient agar, 37° C, 24 or 48 hours
Brucella abortus = type: cell-based; details: blood agar, 37° C, 24 or 48 hours
Candida albicans = experiment: Antimicrobial spectrum (MIC); type: cell-based; details: Sabouraud dextrose agar, 27° C, 48 hours
Saccharomyces cerevisiae = experiment: Antimicrobial spectrum (MIC); type: cell-based; details: Sabouraud dextrose agar, 27° C, 48 hours
Tolura rubra = experiment: Antimicrobial spectrum (MIC); type: cell-based; details: Sabouraud dextrose agar, 27° C, 48 hours
Penicillium glaucum = experiment: Antimicrobial spectrum (MIC); type: cell-based; details: Sabouraud dextrose agar, 27° C, 48 hours
Aspergillus niger = experiment: Antimicrobial spectrum (MIC); type: cell-based; details: Sabouraud dextrose agar, 27° C, 48 hours
Aspergillus oryzae = experiment: Antimicrobial spectrum (MIC); type: cell-based; details: Sabouraud dextrose agar, 27° C, 48 hours
Mucor mucedo = experiment: Antimicrobial spectrum (MIC); type: cell-based; details: Sabouraud dextrose agar, 27° C, 48 hours
[13] = test system: Trichophyton mentagrophytes; experiment: Antimicrobial spectrum (MIC); type: cell-based; details: Sabouraud dextrose agar, 27° C, 72 hours
[14] = chlorocarcins, summary of Table 5

Question: Which results are given for `COC1=C(C)C(=O)c2cc(=O)n(C)cc2C1=O` [mimosamycin]?
Answer: MIC [1]: 1.56 µg/mL (≈ 6.69 µM); MIC [2]: 6.25 µg/mL (≈ 26.8 µM); MIC [3]: 25 µg/mL (≈ 107 µM); activity against gram-positive bacteria (gram-positive bacteria; mimosamycin): active against gram-positive bacteria to a certain extent; activity against gram-negative bacteria (gram-negative bacteria; at 50 μg/ml): non-effective; activity against fungi (fungi): non-effective; activity against acid-fast bacteria (acid-fast bacteria): active; activity against highly streptomycin-resistant strains of human tubercle bacilli [4]: effective; MTD ([5]; mouse, in vivo, mice 18 - 20 g, read-out: tolerated dose): 50 mg/kg; Solubility (Solubility; Ethyl ether, n-hexane): Sparingly soluble; Solubility (Solubility; Methanol, ethanol, chloroform, esters, acetone): Easily soluble; Solubility (Solubility; Water): Insoluble; effect against tubercle bacilli (tubercle bacilli): specifically effective

Question: Which “antibacterial activity against gram-positive bacteria” value (gram-positive bacteria; [14]) does the source give for chlorocarcin B here?
Answer: The value was “mainly show an antibacterial activity”.

Question: And the “antibacterial activity against most gram-negative bacteria” value (gram-negative bacteria; [14])?
Answer: Its value is “little antibacterial activity”.

Question: And the toxicity ([5]; mice)?
Answer: Its toxicity is “relatively low toxicity”.

Question: What about the Solubility (Solubility; Lower alcohols, chloroform, esters, acetone, benzene, ethyl ether) of the same compound?
Answer: The Solubility was “Easily soluble”.

Question: And the Solubility (Solubility; Water)?
Answer: Its Solubility is “Insoluble”.

Question: And the Solubility (Solubility; n-hexane)?
Answer: The Solubility was “Sparingly soluble”.

Question: What about the MIC [6] of the same compound?
Answer: Its MIC is 12.5 µg/mL.

Question: And the MIC [7]?
Answer: Its MIC is 12.5 µg/mL.

Question: What about the MIC (Staphylococcus albus) of the same compound?
Answer: Its MIC is 50 µg/mL.

Question: And the MIC (Staphylococcus citreus)?
Answer: The MIC was 25 µg/mL.

Question: And the MIC [8]?
Answer: Its MIC is 6.25 µg/mL.

Question: What about the MIC [9] of the same compound?
Answer: The MIC was 100 µg/mL.

Question: What about the MIC (Streptococcus salivarius) of the same compound?
Answer: The MIC was 50 µg/mL.

Question: What about the MIC (Streptococcus faecalis) of the same compound?
Answer: Its MIC is > 100 µg/mL.

Question: And the MIC [10]?
Answer: The MIC was 25 µg/mL.

Question: What about the MIC (Bacillus cereus) of the same compound?
Answer: The MIC was 50 µg/mL.

Question: What about the MIC [11] of the same compound?
Answer: The MIC was 0.05 µg/mL.

Question: What about the MIC (Corynebacterium xerosis) of the same compound?
Answer: The MIC was 0.39 µg/mL.

Question: What about the MIC (Lactobacillus arabinosus) of the same compound?
Answer: Its MIC is 50 µg/mL.

Question: What about the MIC (Nocardia asteoides) of the same compound?
Answer: The MIC was 50 µg/mL.

Question: And the MIC [12]?
Answer: The MIC was > 100 µg/mL.

Question: What about the MIC (Mycobacterium phlei) of the same compound?
Answer: Its MIC is > 100 µg/mL.

Question: And the MIC (Mycobacterium avium)?
Answer: The MIC was > 100 µg/mL.

Question: And the MIC (Escherichia coli)?
Answer: The MIC was > 100 µg/mL.

Question: And the MIC (Shigella dysenteriae)?
Answer: Its MIC is > 100 µg/mL.

Question: And the MIC (Salmonella typhimurium)?
Answer: The MIC was > 100 µg/mL.

Question: And the MIC (Klebsiella pneumonaie)?
Answer: Its MIC is 50 µg/mL.

Question: What about the MIC (Serratia marcescens) of the same compound?
Answer: The MIC was > 100 µg/mL.

Question: And the MIC (Pseudomonas aeruginosa)?
Answer: Its MIC is > 100 µg/mL.

Question: And the MIC (Brucella abortus)?
Answer: The MIC was > 100 µg/mL.

Question: What about the MIC (Candida albicans) of the same compound?
Answer: Its MIC is > 100 µg/mL.

Question: And the MIC (Saccharomyces cerevisiae)?
Answer: The MIC was > 100 µg/mL.

Question: And the MIC (Tolura rubra)?
Answer: The MIC was > 100 µg/mL.

Question: What about the MIC (Penicillium glaucum) of the same compound?
Answer: Its MIC is > 100 µg/mL.

Question: What about the MIC (Aspergillus niger) of the same compound?
Answer: Its MIC is > 100 µg/mL.

Question: And the MIC (Aspergillus oryzae)?
Answer: The MIC was > 100 µg/mL.

Question: What about the MIC (Mucor mucedo) of the same compound?
Answer: The MIC was > 100 µg/mL.

Question: And the MIC [13]?
Answer: Its MIC is > 100 µg/mL.
